According to paper PMC9045377, “CpxA Phosphatase Inhibitor Activates CpxRA and Is a Potential Treatment for Uropathogenic Escherichia coli in a Murine Model of Infection” (Microbiology Spectrum, 2022):
Values joined by “and” are separate entries in the source; they are usually repeats but may differ in a detail not shown here. Equal values may be shown once.

How the values were obtained:
CpxRA [1] = test system: CpxRA; design: method as in PMID 31104993; conditions: β-galactosidase reporter assay in E. coli; read-out: mean 50% effective concentration (EC50), CpxRA activation; cited from earlier work
[2] = Toxicity / clinical signs in mice; type: in vivo, female CBA/J mice
Description: We tested our initial hit, compound 1 ([31]) (Fig. 1), for toxicity in a murine model using criteria described in Materials and Methods. […] To test compound 1 for efficacy, female CBA/J mice were transurethrally inoculated with ∼1 × 10^8 CFU of UPEC strain CFT073; 12 h later, mice were treated with 100 mg/kg compound 1 (n = 10) or the vehicle control (n = 5) s.c. twice a day for 3 days and then sacrificed 4 h after the last dose. No effect was seen on the recovery of E. coli CFT073 in the urine, bladder, or kidneys (see Fig. S1 in the supplemental material). As compound 1 lacked efficacy, we aimed to improve the scaffold to enhance potency and eliminate the nitro group liability ([32]).
We developed a high-performance liquid chromatography-tandem mass spectrometry (HPLC-MS/MS) assay to measure compound 6 with a lower limit of quantification of 1 ng/mL. Single-dose PK parameters of compound 6 were determined in female CBA/J mice (n = 15) given 100 mg/kg s.c. dissolved in the vehicle. Blood was obtained from groups of 3 mice 1, 2, 4, 8, and 24 h postinjection.
Animal experiments were conducted according to the guidelines of the Indiana University School of Medicine Institutional Animal Care and Use Committee by the IU Simon Comprehensive Cancer Center In Vivo Therapeutics Core, a component of the Indiana Clinical Translational Science Institute. For the pilot toxicity study with compound 1, 4- to 6-week-old CBA/J female mice were obtained from Jackson Laboratory (Bar Harbor, ME) and were treated with compound 1 or the vehicle control twice a day for 3 days as described in the results. […] Toxicity was determined by the following criteria: deteriorating health-hunched posture, lack of grooming, failure to thrive, failure to eat and drink for >48 h, rapid loss of 15 to 20% body weight, inactivity with hunched posture, loss of righting reflex and inability to maintain upright posture, loss of general body condition with spine becoming visible, and dehiscence of wounds and/or evidence of infection at injection sites not responsive to veterinary treatment.

CpxRA [3] = test: E. coli CpxR β-galactosidase reporter assay for CpxRA activation (reporter strain PAD282); type: cell-based, Escherichia coli
Description: E. coli strain CFT073 and its derivative CFT073ΔcpxA::cat were described previously and maintained on Luria broth (LB) plates at 37°C ([30]). The E. coli PcpxP′-lacZ reporter strain, PAD282, was the gift of Thomas Silhavy (Princeton University, Princeton, NJ, USA) and was maintained on TB plates at 37°C ([31]). HepG2 hepatocellular carcinoma cells were the gift of Andy Yu (Indiana University, Indianapolis, IN) and were grown in RPMI […] medium (Gibco) containing 10% fetal calf serum (HyClone) and 1 mM sodium pyruvate (Sigma) at 37°C with 5% CO2 as described ([31]).
Compounds 1 and 6 were purchased from ChemDiv and Aurum Pharmatech, respectively ([31], [32]). Compound 26 was synthesized and purified by the Duerfeldt laboratory as described ([32]). All compounds were dissolved in DMSO prior to use in this assay. The EC50 values for each compound were determined by measuring the β-galactosidase activity of the reporter strain PAD282 as previously reported ([31]). Briefly, PAD282 was cultured overnight in TB medium with 0.4% glucose and diluted into a 384-well plate, which contained the compounds in concentrations ranging from 0 to 160 μM, and incubated for 5 h at 37°C with no shaking. The All-in-One β-galactosidase reagent (Pierce) was added and the OD420, OD550, and OD600 of the wells were measured by a SpectraMax 384 plate reader. EC50 values were determined from 3 separate experiments done in triplicate using GraphPad Prism software using a nonlinear fit model. In some experiments, EC50 values were determined in the presence and absence of 10% human AB serum (Sigma).

[4] = infected mice, 100 mg/kg s.c. at 12, 36, 60 h

| Compound | EC50 (CpxRA [1]) [µM] | clinical signs during efficacy trial [2, 4] | clinical signs of toxicity at 24 h ([2]; single dose 100 mg/kg s.c.) | tremors ([2]; single dose 100 mg/kg s.c., n = 15, one mouse from 30 min (severe at 2 h), six mice after 1 h) | clinical signs, all treated mice ([2]; single dose 100 mg/kg s.c., from 10 min after injection to the 8-h time point) | effect of 10% human AB serum on activity in the reporter assay (CpxRA [3]; 10% human AB serum present vs absent) | fold lower EC50 (more potent) than compound 1 (CpxRA [3]; reporter assay) | concentration for peak activation of CpxR (CpxRA [3]; reporter assay, Fig. S2) [µM] | signs of toxicity during efficacy trial [2, 4] | fold lower EC50 (more potent) than compound 6 (CpxRA [3]; reporter assay) [fold] |
| --- | --- | --- | --- | --- | --- | --- | --- | --- | --- | --- |
| NC1CCCc2c1[nH]c1ccc(F)cc21 (centres unmarked) [compound 6] | 7.7 | None of the compound 6-treated animals exhibited decreased activity, tremors, or squinting | No mice showed clinical signs of toxicity | slight tremors | slightly decreased activity and squinting | not affected | 3.2 fold and 3 fold | 10 | – | – |
| N[C@@H]1CCCc2c1[nH]c1cc(F)c(F)cc21 [compound 26] | 1.1 | – | – | – | – | – | – | – | None of the compound 26-treated animals exhibited signs of toxicity | ~7 |
